Source: publication PMC8744835, “Sterically Hindered Quaternary Phosphonium Salts (QPSs): Antimicrobial Activity and Hemolytic and Cytotoxic Properties” (International Journal of Molecular Sciences, 2021)

Key:
[1] = test system: Bacillus cereus ATCC 10702 NCTC 8035; test: Antimicrobial activity, serial dilution technique in Mueller–Hinton Broth 2; format: cell-based; conditions: average of three ± SD, - means non-active
Experimental: (§1) The synthesized compounds were tested for antimicrobial activity against a number of Gram-positive bacteria, Staphylococcus aureus (Sa), Bacillus cereus (Bc) and Enterococcus faecalis (Ef), and Gram-negative bacteria, Escherichia coli (Ec) and Pseudomonas aeruginosa (Pa), including the methicillin-resistant strains S. aureus MRSA-1 (resistant to fluoroquinolones and beta-lactams) and MRSA-2 (resistant to beta-lactams). The methicillin-resistant strains S. aureus were transferred by the Republican Clinical Hospital of the Republic of Tatarstan (Kazan). The fungicidal activity against Candida albicans (Ca) and Trichophyton mentagrophytes var. gypseum (Tm) was studied. These pathogens were chosen because they are the most widespread in the food industry and the healthcare system.
(§2) The antimicrobial activity of the QPSs was determined using the serial dilution technique in Mueller–Hinton Broth 2. The cultures used for testing included the Gram-positive bacteria Staphylococcus aureus ATCC 6538P FDA 209P, Enterococcus faecalis ATCC 2921 and Bacillus cereus ATCC 10702 NCTC 8035, the Gram-negative bacteria Escherichia coli ATCC 25922 and Pseudomonas aeruginosa ATCC 9027, and the fungi Trichophyton mentagrophytes var. gypseum 1773 and Candida albicans ATCC 10231; methicillin-resistant strains of S. aureus MRSA were obtained from hospital patients with chronic tonsillitis (MRSA-1) and sinusitis (MRSA-2) in the Republican Clinical Hospital (Kazan, Russia). […] The bacterial load was 3.0 × 10^5 cfu/mL. The results were recorded every 24 h for 5 days. The cultures were incubated at 37 °C. The experiment was repeated three times. […] The minimum inhibitory concentration (MIC) was defined as the minimum concentration of a compound that inhibits the growth of the corresponding test micro-organism. The growth of bacteria as well as the absence of growth due to the bacteriostatic action of a compound was recorded.

[2] = test system: Enterococcus faecalis ATCC 2921; test: as above; format: cell-based; conditions: average of three ± SD, - means non-active
Experimental: as §1, §2

[3] = test system: Escherichia coli ATCC 25922; test: as above; format: cell-based; conditions: Ec; average of three ± SD; - means non-active
Experimental: as §1, §2

[4] = test system: Pseudomonas aeruginosa ATCC 9027; test: as above; format: cell-based; conditions: average of three ± SD, - means non-active
Experimental: as §1, §2

[5] = test system: Staphylococcus aureus ATCC 6538P FDA 209P; test: as above; format: cell-based; conditions: average of three ± SD, - means non-active
Experimental: as §1, §2

[6] = test system: methicillin-resistant S. aureus MRSA-1; test: as above; format: cell-based, Staphylococcus aureus; conditions: - means non-active
Experimental: as §1, §2

[7] = test system: methicillin-resistant S. aureus MRSA-2; test: as above; format: cell-based, Staphylococcus aureus; conditions: - means non-active
Experimental: as §1, §2

[8] = test system: Candida albicans ATCC 10231; test: Fungicidal activity, serial dilution technique; format: cell-based; conditions: average of three ± SD, - means non-active
Experimental: as §1
(§3) The antimicrobial activity of the QPSs was determined using the serial dilution technique in Mueller–Hinton Broth 2. The cultures used for testing included the Gram-positive bacteria Staphylococcus aureus ATCC 6538P FDA 209P, Enterococcus faecalis ATCC 2921 and Bacillus cereus ATCC 10702 NCTC 8035, the Gram-negative bacteria Escherichia coli ATCC 25922 and Pseudomonas aeruginosa ATCC 9027, and the fungi Trichophyton mentagrophytes var. gypseum 1773 and Candida albicans ATCC 10231; methicillin-resistant strains of S. aureus MRSA were obtained from hospital patients with chronic tonsillitis (MRSA-1) and sinusitis (MRSA-2) in the Republican Clinical Hospital (Kazan, Russia). Ciprofloxacin and ketoconazole were purchased from Sigma-Aldrich. The bacterial load was 3.0 × 10^5 cfu/mL. The results were recorded every 24 h for 5 days. The cultures were incubated at 37 °C. The experiment was repeated three times. […] The minimum inhibitory concentration (MIC) was defined as the minimum concentration of a compound that inhibits the growth of the corresponding test micro-organism. The growth of bacteria as well as the absence of growth due to the bacteriostatic action of a compound was recorded.

[9] = test system: Trichophyton mentagrophytes var. gypseum 1773; test: Fungicidal activity, serial dilution technique; format: cell-based; conditions: Tm, average of three ± SD, - means non-active; for MBC / MIC: Trichophyton mentagrophytes; for MBC: read-out: Minimum Bactericidal and Fungicidal Concentration (MBC, MFC), Tm; for MIC: read-out: Minimum Inhibitory Concentration (MIC), Tm
Experimental: as §1, §3

[10] = test system: Escherichia coli ATCC 25922; test: Antimicrobial activity, serial dilution technique in Mueller–Hinton Broth 2; format: cell-based; conditions: average of three ± SD, - means non-active
[11] = MRSA-1 (resistant to fluoroquinolones and beta-lactams)
[12] = MRSA-2 (resistant to beta-lactams)

Row | SMILES | Minimum Bactericidal and Fungicidal Concentration (MBC, MFC), Bc [1] | Minimum Inhibitory Concentration (MIC), Bc [1] | Minimum Bactericidal and Fungicidal Concentration (MBC, MFC), Ef [2] | Minimum Inhibitory Concentration (MIC), Ef [2] | Minimum Inhibitory Concentration (MIC), Ec [3] | Minimum Bactericidal and Fungicidal Concentration (MBC, MFC), Pa [4] | Minimum Inhibitory Concentration (MIC), Pa [4] | Minimum Bactericidal and Fungicidal Concentration (MBC, MFC), Sa [5] | Minimum Inhibitory Concentration (MIC), Sa [5] | Minimum Inhibitory Concentration (MIC), MRSA-1 [6, 11] | Minimum Bactericidal and Fungicidal Concentration (MBC, MFC), MRSA-1 ([6]; MRSA-1) | Minimum Inhibitory Concentration (MIC), MRSA-2 [7, 12] | Minimum Bactericidal and Fungicidal Concentration (MBC, MFC), MRSA-2 ([7]; MRSA-2) | Minimum Bactericidal and Fungicidal Concentration (MBC, MFC), Ca [8] | Minimum Inhibitory Concentration (MIC), Ca [8] | Minimum Bactericidal and Fungicidal Concentration (MBC, MFC), Tm [9] | Minimum Inhibitory Concentration (MIC), Tm [9] | Minimum Bactericidal and Fungicidal Concentration (MBC, MFC), Ec [10] | MBC [9] | MIC [9] | also measured
1 | CCCCCCCCCCCCCC[P+](C(C)(C)C)(C(C)(C)C)C(C)(C)C [Compound 14b] | 15.6 ± 1.2 µg/mL | 0.9 ± 0.07 µg/mL | 1.9 ± 0.1 µg/mL | 0.9 ± 0.08 µg/mL | 1.9 ± 0.1 µg/mL | 62.5 ± 5.4 µg/mL | 7.8 ± 0.6 µg/mL | 1.9 ± 0.1 µg/mL | 0.1 ± 0.008 µg/mL | 0.3 ± 0.01 µg/mL | 0.5 ± 0.03 µg/mL | 0.3 ± 0.02 µg/mL | 0.5 ± 0.03 µg/mL | 15.6 ± 1.2 µg/mL | 3.9 ± 0.3 µg/mL | 15.6 ± 1.3 µg/mL | 15.6 ± 1.3 µg/mL | 3.9 ± 0.2 µg/mL | – | – | –
2 | CCCCCCCCCCCCCCC[P+](C(C)(C)C)(C(C)(C)C)C(C)(C)C [Compound 15a] | – | – | 1.9 ± 0.1 µg/mL | – | 1.9 ± 0.1 µg/mL | – | – | – | – | – | – | – | – | 3.9 ± 0.2 µg/mL | – | – | – | – | 62.5 ± 5.7 µg/mL | 62.5 ± 5.3 µg/mL | MBC ([1]; Bacillus cereus, Bc, read-out: Minimum Bactericidal and Fungicidal Concentration (MBC, MFC), Bc): 15.6 ± 1.3 µg/mL; MIC ([1]; Bacillus cereus, Bc, read-out: Minimum Inhibitory Concentration (MIC), Bc): 0.5 ± 0.03 µg/mL; MIC ([2]; Enterococcus faecalis, ATCC2921, Ef, read-out: Minimum Inhibitory Concentration (MIC), Ef): 0.5 ± 0.03 µg/mL; MBC ([4]; Pseudomonas aeruginosa, ATCC9027, Pa, read-out: Minimum Bactericidal and Fungicidal Concentration (MBC, MFC), Pa): 7.8 ± 0.6 µg/mL; MIC ([4]; Pseudomonas aeruginosa, ATCC9027, Pa, read-out: Minimum Inhibitory Concentration (MIC), Pa): 7.8 ± 0.7 µg/mL; MBC ([5]; Staphylococcus aureus, Sa, read-out: Minimum Bactericidal and Fungicidal Concentration (MBC, MFC), Sa): 0.5 ± 0.03 µg/mL; MIC ([5]; Staphylococcus aureus, Sa, read-out: Minimum Inhibitory Concentration (MIC), Sa): 0.2 ± 0.01 µg/mL; MIC ([6]; Staphylococcus aureus, MRSA, MRSA-1 (resistant to fluoroquinolones and beta-lactams), read-out: Minimum Inhibitory Concentration (MIC), MRSA-1): 0.5 ± 0.02 µg/mL; MBC ([6]; Staphylococcus aureus, MRSA, MRSA-1, read-out: Minimum Bactericidal and Fungicidal Concentration (MBC, MFC), MRSA-1): 0.5 ± 0.04 µg/mL; MIC ([7]; Staphylococcus aureus, MRSA, MRSA-2 (resistant to beta-lactams), read-out: Minimum Inhibitory Concentration (MIC), MRSA-2): 0.5 ± 0.04 µg/mL; MBC ([7]; Staphylococcus aureus, MRSA, MRSA-2, read-out: Minimum Bactericidal and Fungicidal Concentration (MBC, MFC), MRSA-2): 0.5 ± 0.03 µg/mL; MIC ([8]; Candida albicans, ATCC10231, Ca, read-out: Minimum Inhibitory Concentration (MIC), Ca): 1.9 ± 0.1 µg/mL; MBC ([10]; Escherichia coli, ATCC25922, Ec, read-out: Minimum Bactericidal and Fungicidal Concentration (MBC, MFC), Ec): 3.9 ± 0.2 µg/mL
3 | CCCCCCCCCCCCCCC[P+](C(C)(C)C)(C(C)(C)C)C(C)(C)C [Compound 15b] | 15.6 ± 1.3 µg/mL | 0.5 ± 0.03 µg/mL | 3.9 ± 0.2 µg/mL | 0.5 ± 0.04 µg/mL | 3.9 ± 0.2 µg/mL | 3.9 ± 0.3 µg/mL | 3.9 ± 0.2 µg/mL | 0.5 ± 0.03 µg/mL | 0.2 ± 0.01 µg/mL | 0.3 ± 0.01 µg/mL | 0.3 ± 0.01 µg/mL | 0.5 ± 0.03 µg/mL | 0.5 ± 0.04 µg/mL | 15.6 ± 1.2 µg/mL | 1.9 ± 0.1 µg/mL | 62.5 ± 5.2 µg/mL | 62.5 ± 5.5 µg/mL | 3.9 ± 0.2 µg/mL | – | – | –
4 | CCCCCCCCCCCCCCCC[P+](C(C)(C)C)(C(C)(C)C)C(C)(C)C [Compound 16b] | 31.3 ± 2.4 µg/mL | 1.9 ± 0.1 µg/mL | 0.5 ± 0.03 µg/mL | 0.5 ± 0.04 µg/mL | 1.9 ± 0.1 µg/mL | 62.5 ± 5.3 µg/mL | 3.9 ± 0.02 µg/mL | 0.5 ± 0.03 µg/mL | 0.5 ± 0.03 µg/mL | 1.9 ± 0.1 µg/mL | 15.6 ± 1.2 µg/mL | 0.5 ± 0.03 µg/mL | 3.9 ± 0.2 µg/mL | 3.9 ± 0.2 µg/mL | 3.9 ± 0.2 µg/mL | – | – | 1.9 ± 0.1 µg/mL | 62.5 ± 5.5 µg/mL | 62.5 ± 5.6 µg/mL | –
